# Experimental data published in paper PMC11602988 (The Journal of Biological Chemistry, 2024).
# Changes are numbered by the printed parent chain. Like-named read-outs stand apart in the source and are kept apart here.
# Legend:
# OCT1 WT = molecular target: T1, OCT1 WT (Homo sapiens, UniProt O15245); assay: Uptake screening (transport ratio over empty vector), HEK293 cells overexpressing OCT1 WT; type: cell-based; design: expressed in transfected cells;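 further: intracellular substrate levels quantified by HPLC–tandem mass spectrometry after uptake in HBSS+ buffer at 37 °C, stable Flp-In HEK293 lines, fold change versus empty vector–transfected cells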
# T1 sequence (O15245 1-554): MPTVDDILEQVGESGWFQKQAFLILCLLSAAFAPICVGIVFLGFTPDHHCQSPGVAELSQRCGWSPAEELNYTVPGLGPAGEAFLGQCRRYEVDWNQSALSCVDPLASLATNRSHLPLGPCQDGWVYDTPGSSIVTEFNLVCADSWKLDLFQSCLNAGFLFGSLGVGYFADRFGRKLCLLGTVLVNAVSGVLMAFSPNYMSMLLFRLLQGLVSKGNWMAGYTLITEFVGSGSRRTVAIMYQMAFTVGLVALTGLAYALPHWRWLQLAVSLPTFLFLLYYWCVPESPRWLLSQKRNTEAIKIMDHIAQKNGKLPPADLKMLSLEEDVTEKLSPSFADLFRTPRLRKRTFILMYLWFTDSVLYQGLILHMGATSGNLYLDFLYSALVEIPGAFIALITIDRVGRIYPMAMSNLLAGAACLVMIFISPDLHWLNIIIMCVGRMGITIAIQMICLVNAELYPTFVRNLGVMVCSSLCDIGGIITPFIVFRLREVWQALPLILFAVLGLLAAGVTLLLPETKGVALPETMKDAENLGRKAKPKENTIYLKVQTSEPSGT
# Protocol: All experiments were carried out using transporter-overexpressing HEK293 cells. […] Cells were cultivated in Dulbecco’s Modified Eagle’s medium supplemented with 10% fetal calf serum, 100 U/ml penicillin, and 100 μg/ml streptomycin. Cells were passaged twice a week and kept in culture for no longer than 30 passages.
# For uptake studies, 300,000 HEK293 cells were plated in each well of 24-well plates precoated with poly-D-lysine 48 prior to the experiment. On the day of the experiment, cells were washed once with prewarmed to 37 °C HBSS+ (Hank’s balanced salt solution supplemented with 10 mM Hepes, both Sigma-Aldrich). […] Uptake was stopped by adding ice-cold HBSS+ and cells were washed twice with ice-cold buffer before cell lysis was done using 80% acetonitrile containing an appropriate internal standard for eventual mass spectrometry. Relative quantification was done by comparison of transporter-overexpressing cells to empty vector–transfected controls. For uptake kinetic experiments, cells were incubated with increasing concentrations of substrate dissolved in HBSS+. Absolute quantification was done later by comparison to a standard curve in lysis buffer with known concentration.
# Intracellular drug concentrations were detected and quantified by HPLC coupled to mass spectrometry. […] Substance-specific conditions were used to adjust the retention times of the analytes.
# Transport ratios were determined as relative fold-increase of the uptake in transporter-overexpressing cells over empty vector–transfected control cells. For transport kinetic experiments, absolute substrate quantification was done by signal comparison to a standard curve with known concentrations. Net uptake was then determined by subtracting the uptake into empty vector–transfected cells from transporter-overexpressing cells. […] Vmax defines the maximum transport velocity, Km refers to the substrate concentration required to reach half vmax. The intrinsic clearance Clint is the ratio of vmax over Km.
# OCT1 Phe244Ala variant = molecular target: T2, OCT1 Phe244Ala variant (Homo sapiens, UniProt O15245, F244A); assay: Uptake screening (transport ratio over empty vector), HEK293 cells overexpressing OCT1 Phe244Ala variant; type: cell-based; design: expressed in transfected cells;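 further: stably transfected HEK293 cells, intracellular substrate quantified by HPLC-tandem mass spectrometry in cell lysates, uptake in HBSS+ buffer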
# T2 sequence (O15245 1-554 F244A): T1 sequence (O15245 1-554) with F244A
# [1] = uptake ratio over empty vector, HEK293 cells overexpressing OCT1 WT
# [2] = Phe244Ala uptake relative to WT
# [3] = uptake ratio over empty vector, HEK293 cells overexpressing OCT1 Phe244Ala
# [4] = uptake ratio of OCT1 WT-overexpressing HEK293 cells over empty vector
# [5] = Phe244Ala uptake relative to OCT1 WT
# [6] = uptake ratio of OCT1 Phe244Ala-overexpressing HEK293 cells over empty vector
SMILES,Mean_transport_ratio_WT (OCT1 WT; [1]),Mean_transport_ratio_Phe244Ala (OCT1 Phe244Ala variant; [3]),Mean_transport_ratio_WT (OCT1 WT; [4]),relative_Phe244Ala_uptake_in% (OCT1 Phe244Ala variant; [5]),Mean_transport_ratio_Phe244Ala (OCT1 Phe244Ala variant; [6]),other results
NC(N)=NC(N)=Nc1ccc(Cl)cc1 [CPB],17.903,13.901,,,,relative_Phe244Ala_uptake_in% (OCT1 Phe244Ala variant; [2]): 76.322%
COc1cc2c(cc1OC)-c1c(C)c3ccc(OC)c(OC)c3c[n+]1CC2 [Dehydrocorydaline],9.385,9.409,,,,relative_Phe244Ala_uptake_in% (OCT1 Phe244Ala variant; [2]): 100.287%
COc1ccc2c3c([nH]c2c1)C(C)=NCC3 [Harmaline],,,1.46,53.184%,1.245,
CC(C)[N+](C)(CCOC(=O)C1c2ccccc2Oc2ccccc21)C(C)C [Propanthelinbromid],8.263,14.937,,191.888%,,
CNC1(C)C2CCC(C2)C1(C)C (stereo not drawn) [Mecamylamine],,,1.579,-72.241%,0.581,
c1cnn(C2CCNCC2)c1 [762240-09-5],4.49,1.119,,,,relative_Phe244Ala_uptake_in% (OCT1 Phe244Ala variant; [2]): 3.421%
C[N+]1(CCC(C(N)=O)(c2ccccc2)c2ccccc2)CCCCC1 [Fenpiverinium],,,38.408,131.946%,50.359,
CNCC(O)c1ccc(O)cc1 (stereo not drawn) [Synephrine],8.37,4.516,,47.706%,,
COc1cc(CCN)ccc1O [3-Methoxy-p-tyramine],,,3.981,27.805%,1.829,
CN(C)CC(c1ccc(O)cc1)C1(O)CCCCC1 (stereo not drawn) [O-Desmethylvenlafaxine],2.309,3.092,,,,relative_Phe244Ala_uptake_in% (OCT1 Phe244Ala variant; [2]): 159.771%
OC(c1ccccc1)(c1ccccc1)C12CC[N+](CCOCc3ccccc3)(CC1)CC2 [Umeclidinium],6.027,7.391,,127.145%,,
O=C(OC1C[N+]2(CCCOc3ccccc3)CCC1CC2)C(O)(c1cccs1)c1cccs1 [(S)-Aclidinium],4.495,8.181,,,,relative_Phe244Ala_uptake_in% (OCT1 Phe244Ala variant; [2]): 205.468%
CC(C)NCC(O)c1ccc(O)c(O)c1 (stereo not drawn) [Isoproterenol],,,6.241,28.983%,2.519,
"CC[C@H](CO)NCCN[C@@H](CC)CO [(R,S)-Ethambutol]",,,,,,Mean_transport_ratio_WT (OCT1 WT): 17.35; Mean_transport_ratio_Phe244Ala (OCT1 Phe244Ala variant): 12.934; relative_Phe244Ala_uptake_in% (OCT1 Phe244Ala variant): 72.992%
CC(C)NCC(O)c1ccc(NS(C)(=O)=O)cc1 (stereo not drawn) [Sotalol],5.197,2.831,,43.617%,,
CCC1(c2cccc(O)c2)CCCCN(C)C1 (stereo not drawn) [Meptazinol],,,,,,Mean_transport_ratio_WT (OCT1 WT): 1.477; Mean_transport_ratio_Phe244Ala (OCT1 Phe244Ala variant): 1.571; relative_Phe244Ala_uptake_in% (OCT1 Phe244Ala variant): 119.786%
C[N+]12CCC(CC1)C(OC(=O)C(O)(c1ccccc1)c1ccccc1)C2 (stereo not drawn) [Clidinium],30.863,34.518,,,,relative_Phe244Ala_uptake_in% (OCT1 Phe244Ala variant; [2]): 112.238%
CN[C@@H]1CCc2[nH]c3ccc(C(N)=O)cc3c2C1 [R-Frovatriptan],16.171,10.8,,64.599%,,
CC[N+](CC)(CC(=O)Nc1c(C)cccc1C)Cc1ccccc1 [Denatonium],14.264,17.085,,,,relative_Phe244Ala_uptake_in% (OCT1 Phe244Ala variant; [2]): 121.267%
[H]/N=C(/N)N/C(=N/[H])NCCc1ccccc1 [Phenformin],29.083,32.603,,112.534%,,

SMILES,Mean_transport_ratio_WT (OCT1 WT; [1]),Mean_transport_ratio_Phe244Ala (OCT1 Phe244Ala variant; [3]),Mean_transport_ratio_WT (OCT1 WT; [4]),relative_Phe244Ala_uptake_in% (OCT1 Phe244Ala variant; [5]),Mean_transport_ratio_Phe244Ala (OCT1 Phe244Ala variant; [6]),other results
Cc1nccn1CC1CCc2c(c3ccccc3n2C)C1=O (stereo not drawn) [Ondansetron],1.554,1.514,,92.867%,,
O=C(O[C@H]1C[C@H]2CC[C@@H](C1)[N+]21CCCC1)C(O)(c1ccccc1)c1ccccc1 [Trospium],27.542,29.384,,106.940%,,
COc1cc2c(cc1OC)[C@H](C)NCC2 [Salsolidine],1.647,1.211,,32.677%,,
CNC(=C[N+](=O)[O-])NCCSCc1csc(CN(C)C)n1 [Nizatidine],,,4.961,10.436%,1.413,
C[N@+]1(CC2CC2)CC[C@]23c4c5ccc(O)c4O[C@H]2C(=O)CC[C@@]3(O)[C@H]1C5 [Methylnaltrexone],,,47.714,139.178%,66.016,
NCc1ccc(O)cc1 [Hydroxybenzylamin],,,2.288,22.795%,1.294,
Cc1cc(C(C)(C)C)cc(C)c1CC1=NCCN1 [Xylometazoline],2.256,4.046,,242.447%,,
CCN[C@@H](C)Cc1cccc(C(F)(F)F)c1 [(S)-Fenfluramine],,,,,,Mean_transport_ratio_WT (OCT1 WT): 1.065; Mean_transport_ratio_Phe244Ala (OCT1 Phe244Ala variant): 1.119; relative_Phe244Ala_uptake_in% (OCT1 Phe244Ala variant): 183.841%
CN=C(NC#N)NCCSCc1nc[nH]c1C [Cimetidin],2.536,2.588,,,,relative_Phe244Ala_uptake_in% (OCT1 Phe244Ala variant; [2]): 103.374%
N=C(N)NC(=O)Cc1c(Cl)cccc1Cl [Guanfacine],,,3.273,86.485%,2.966,
CC(C)NC[C@H](O)COc1ccc(O)cc1 [S-Prenalterol],3.969,4.341,,112.541%,,
O=S(=O)(c1cccc2cnccc12)N1CCCNCC1 [Fasudil],,,1,,1.171,
CCC1(C2=NCCN2)Cc2ccccc2O1 (stereo not drawn) [Efaroxan],1.81,1.371,,,,relative_Phe244Ala_uptake_in% (OCT1 Phe244Ala variant; [2]): 45.757%
NCC(O)c1ccc(O)cc1 (stereo not drawn) [Octopamine],,,3.942,54.574%,2.606,
NCCc1c[nH]c2ccccc12 [Tryptamin],2.619,1.149,,9.229%,,
CNCC(O)c1ccc(O)c(OC)c1 (stereo not drawn) [Metanephrine],,,7.123,38.392%,3.351,
NCCc1ccc(O)cc1 [p-Tyramine],4.809,1.435,,11.429%,,
Nc1ccncc1N [Amifampridine],4.689,1.269,,,,relative_Phe244Ala_uptake_in% (OCT1 Phe244Ala variant; [2]): 7.302%
CNCc1ccc(CSCCNC(=C[N+](=O)[O-])NC)o1 [N-Desmethyl ranitidine],35.663,31.7,,,,relative_Phe244Ala_uptake_in% (OCT1 Phe244Ala variant; [2]): 88.566%
Cc1cccc(C)c1OCC(C)N (stereo not drawn) [Mexiletine],,,,53.635%,,
